≈ marks a conversion by molar mass, not a printed value. Where “and” joins values, the source holds several entries; their conditions need not be identical. Equal entries are not always repeated. Structures can show the parent of a compound that is named as a salt. Where two headings read alike, the source gives them in different places.
Experiments:
[1] = tested on: B. fragilis MZ-R ATCC 11295; experiment: anti-anaerobic activity, MIC/MBC in 96 well microtitre plates, strain D; format: cell-based, Bacteroides fragilis; details: for MBC / MIC: Bacteroides fragilis, ATCC11295, 48 h; for MBC: read-out: MBC (Minimum Bactericidal Concentration); for MIC: read-out: MIC (Minimum Inhibitory Concentration)
Protocol: The screening panel utilized in the Example consisted of 5 strains of Bacteroides fragilis. All assays were carried out in 96 well microtitre plates. If an isolate was obtained from either a culture collection or clinical source, the isolate was immediately innoculated into Wilkens-Chalgren broth (Oxoid) and incubated at 37° C. in an anaerobic chamber in an atmosphere of 85% nitrogen, 10% carbon dioxide, and 5% hydrogen for 48 hours. At the end of this time, the viable count was about […] broth. A 1 ml aliquot of each culture was placed in an ampoule and quick frozen in acetone-dry ice mixture and stored in liquid nitrogen. When an inoculum was utilized in an assay, one of the ampoules was thawed and diluted with fresh broth to yield a suspension having a count of 5×10^5 organisms/ml. A 100 μl aliquot of the suspension was inoculated into each well of the microtitre plate. A 2 mg sample of the test compound wa dissolved in 0.2 ml of a suitable solvent such as dimethylsulfoxide, polyethylene glycol 200 or methanol. The solution was then diluted with 4.8 ml of water to yield a solution having a concentration of 400 mg/L. Doubling dilutions of this stock were prepared to give a range of concentrations from 1.6-200 mg/L. 100 μl of each concentration were then placed in the wells of the microtitre plate containing the inoculum, to produce a final concentration range of 0.8-100 mg/l. Metronidazole was employed as a positive control and a solvent/water mixture was employed as a negative control. After addition of the test solution the final inoculum level was 10^5 cells/ml. The plates were incubated for 48 hours at 37° C. in the anaerobic chamber. The Minimum Inhibitory Concentration (MIC) was read visually. The MIC is defined as the lowest concentration at which there is no detectable growth. The Minimum Bactericidal Concentration (MBC) was determined by taking a 50 μl aliquot from each well and placing it in fresh medium. […] The strains of Bacteroides fragilis utilized in the above procedure are identified by letter in accordance with the following legend: |D B. fragilis MZ-R ATCC 11295

[2] = tested on: Fusobacterium necrophorum ATCC 11295; experiment: anti-anaerobic activity, MIC (procedures of Example 13); format: cell-based; details: ATCC11295, procedures of Example 13 (there mg/L)
[3] = tested on: Peptococcus prevotti ATCC 9321; experiment: as above; format: cell-based
[4] = tested on: Clostridium perfringens NCTC 8237; experiment: microbe, parasite or virus in culture; format: cell-based; details: NCTC8237
[5] = tested on: Peptococcus magnus ATCC 29328; experiment: anti-anaerobic activity, MIC (procedures of Example 13); format: cell-based; details: Finegoldia magna, ATCC29328
B. fragilis NCTC 10581 = experiment: anti-anaerobic activity, MIC/MBC in 96 well microtitre plates, strain A; format: cell-based, Bacteroides fragilis; details: for MBC / MIC: Bacteroides fragilis, NCTC10581, 48 h; for MBC: read-out: MBC (Minimum Bactericidal Concentration); for MIC: read-out: MIC (Minimum Inhibitory Concentration)
[6] = tested on: Propionibacterium acnes NCTC 737; experiment: anti-anaerobic activity, MIC (procedures of Example 13); format: cell-based; details: Cutibacterium acnes, NCTC737, procedures of Example 13 (there mg/L)
[7] = tested on: Peptostreptococcus anaerobicus ATCC 27337; experiment: as above; format: cell-based; details: ATCC27337
[8] = tested on: Propionibacterium acnes NCTC 7337; experiment: as above; format: cell-based; details: Cutibacterium acnes, NCTC7337, procedures of Example 13 (there mg/L)
B. fragilis NCTC 9344 = experiment: anti-anaerobic activity, MIC/MBC in 96 well microtitre plates, strain C; format: cell-based, Bacteroides fragilis; details: for MBC / MIC: Bacteroides fragilis, NCTC9344, 48 h; for MBC: read-out: MBC (Minimum Bactericidal Concentration); for MIC: read-out: MIC (Minimum Inhibitory Concentration)
[9] = tested on: Campylobacter fetus ATCC 29428; experiment: anti-anaerobic activity, MIC (procedures of Example 13); format: cell-based; details: ATCC29428, procedures of Example 13 (there mg/L)
B. fragilis WS-1 = experiment: anti-anaerobic activity, MIC/MBC in 96 well microtitre plates, strain E; format: cell-based; details: Bacteroides fragilis; for MIC: 48 hours at 37° C., anaerobic chamber, 10^5 cells/ml, read-out: MIC (Minimum Inhibitory Concentration); for MBC: 99.9% reduction in viable count after 48 hours
B. fragilis NCTC 9343 = experiment: anti-anaerobic activity, MIC/MBC in 96 well microtitre plates, strain B; format: cell-based, Bacteroides fragilis; details: for MIC / MBC: Bacteroides fragilis; for MIC: read-out: MIC (Minimum Inhibitory Concentration); for MBC: 99.9% reduction in viable count after 48 hours
[10] = tested on: Clostridium perfringens NCTC 523; experiment: microbe, parasite or virus in culture; format: cell-based; details: NCTC523
[11] = 99.9% reduction in viable count after 48 hours
[12] = 48 hours at 37° C., anaerobic chamber, 10^5 cells/ml
[13] = strain A, 99.9% reduction in viable count after 48 hours
[14] = strain A, 48 hours at 37° C., anaerobic chamber, 10^5 cells/ml
[15] = strain C, 99.9% reduction in viable count after 48 hours
[16] = strain C, 48 hours at 37° C., anaerobic chamber, 10^5 cells/ml
[17] = WS1, strain E, read-out: MBC (Minimum Bactericidal Concentration)
[18] = NCTC9343, 48 h, strain B, 48 hours at 37° C., anaerobic chamber, 10^5 cells/ml
[19] = NCTC9343, strain B, read-out: MBC (Minimum Bactericidal Concentration)

| Structure (SMILES) | MBC [1, 11] [µg/mL] | MIC [1, 12] [µg/mL] | MBC (B. fragilis NCTC 10581; [13]) [µg/mL] | MIC (B. fragilis NCTC 10581; [14]) [µg/mL] | MBC (B. fragilis NCTC 9344; [15]) [µg/mL] | MIC (B. fragilis NCTC 9344; [16]) [µg/mL] | MIC (B. fragilis WS-1; WS1, 48 h, strain E) [µg/mL] | MBC (B. fragilis WS-1; [17]) [µg/mL] | MIC (B. fragilis NCTC 9343; [18]) [µg/mL] | MBC (B. fragilis NCTC 9343; [19]) [µg/mL] | also measured |
| --- | --- | --- | --- | --- | --- | --- | --- | --- | --- | --- | --- |
| O=C(c1ccc(Cl)cc1Cl)C(Cl)(Cn1ccnc1)c1ccccc1 (stereo not drawn) [Example 4, 2-Chloro-1-(2,4-dichlorophenyl)-3-(imidazol-1-yl)-2-phenylpropan-1-one] | 3.1 (≈ 8.16 µM) | 0.8 (≈ 2.11 µM) | 6.2 (≈ 16.3 µM) | 0.8 (≈ 2.11 µM) | 12.5 (≈ 32.9 µM) | 0.8 (≈ 2.11 µM) | 0.8 (≈ 2.11 µM) | 6.2 (≈ 16.3 µM) | 0.8 (≈ 2.11 µM) | 6.2 (≈ 16.3 µM) | MIC [2]: 0.8 µg/mL (≈ 2.11 µM); MIC ([3]; Peptococcus prevotti ATCC 9321, procedures of Example 13 (there mg/L), read-out: MIC): 0.8 µg/mL (≈ 2.11 µM); MIC [4]: 0.8 µg/mL (≈ 2.11 µM); MIC ([5]; Peptococcus magnus ATCC 29328, procedures of Example 13 (there mg/L), read-out: MIC): 0.8 µg/mL (≈ 2.11 µM); MIC [6]: 0.8 µg/mL (≈ 2.11 µM); MIC ([7]; Peptostreptococcus anaerobicus ATCC 27337, procedures of Example 13 (there mg/L), read-out: MIC): 0.8 µg/mL (≈ 2.11 µM); MIC [8]: 0.8 µg/mL (≈ 2.11 µM); MIC [9]: 0.8 µg/mL (≈ 2.11 µM); MIC [10]: 0.8 µg/mL (≈ 2.11 µM) |
| COC(=O)CCc1cn(CC(Cl)(C(=O)c2ccc(Cl)cc2Cl)c2ccccc2)cn1 (stereo not drawn) [Example 5, 3-[1-[2-Chloro-3-(2,4-dichlorophenyl)-3-oxo-2-phenylpropyl]-imidazol-4-yl]propanoic acid methyl ester] | 0.8 (≈ 1.72 µM) | 0.8 (≈ 1.72 µM) | 1.5 (≈ 3.22 µM) | 1.5 (≈ 3.22 µM) | 1.5 (≈ 3.22 µM) | 1.5 (≈ 3.22 µM) | 3.1 (≈ 6.66 µM) | 3.1 (≈ 6.66 µM) | 1.5 (≈ 3.22 µM) | 1.5 (≈ 3.22 µM) |  |
| O=C(O)/C=C/c1cn(CC(Cl)(C(=O)c2ccc(Cl)cc2Cl)c2ccccc2)cn1 (stereo not drawn) [Example 6, E-3-[1-[2-Chloro-3-(2,4-dichlorophenyl)-3-oxo-2-phenylpropyl]imidazol-1-yl]propenoic acid hydrochloride] | 0.8 | 0.8 | 0.8 | 0.8 | 0.8 | 0.8 | 3.1 | 3.1 | 1.5 | 3.1 |  |
| N[C@@H](Cc1cn(CC(Cl)(C(=O)c2ccc(Cl)cc2Cl)c2ccccc2)cn1)C(=O)O (stereo partly drawn) [Example 8, 1-[2-Chloro-3-(2,4-dichlorophenyl)-3-oxo-2-phenylpropyl]-L-histidine] | 0.8 (≈ 1.71 µM) | 0.8 (≈ 1.71 µM) | 0.8 (≈ 1.71 µM) | 0.8 (≈ 1.71 µM) | 0.8 (≈ 1.71 µM) | 0.8 (≈ 1.71 µM) | 3.1 (≈ 6.64 µM) | 3.1 (≈ 6.64 µM) | 0.8 (≈ 1.71 µM) | 0.8 (≈ 1.71 µM) |  |
| C[C@H](NC(=O)[C@H](Cc1cn(CC(Cl)(C(=O)c2ccc(Cl)cc2Cl)c2ccccc2)cn1)NC(=O)OC(C)(C)C)C(=O)OC(C)(C)C (stereo partly drawn) [Example 9, N-[1-[2-Chloro-3-(2,4-dichlorophenyl)-3-oxo-2-phenylpropyl]-N-[(1,1-dimethylethoxy)carbonyl]-L-histidyl]-L-alanine 1,1-dimethylethyl ester] | 0.8 (≈ 1.15 µM) | 0.8 (≈ 1.15 µM) | 6.2 (≈ 8.93 µM) | 3.1 (≈ 4.47 µM) | 6.2 (≈ 8.93 µM) | 6.2 (≈ 8.93 µM) | 12.5 (≈ 18 µM) | 12.5 (≈ 18 µM) | 3.1 (≈ 4.47 µM) | 3.1 (≈ 4.47 µM) |  |
| C[C@H](NC(=O)[C@@H](N)Cc1cn(CC(Cl)(C(=O)c2ccc(Cl)cc2Cl)c2ccccc2)cn1)C(=O)O (stereo partly drawn) [Example 10, N-[1-[2-Chloro-3-(2,4-dichlorophenyl)-3-oxo-2-phenylpropyl]-L-histidyl]-L-alanine] | 0.8 (≈ 1.49 µM) | 0.8 (≈ 1.49 µM) | 3.1 (≈ 5.76 µM) | 3.1 (≈ 5.76 µM) | 6.2 (≈ 11.5 µM) | 3.1 (≈ 5.76 µM) | 6.2 (≈ 11.5 µM) | 6.2 (≈ 11.5 µM) | 3.1 (≈ 5.76 µM) | 3.1 (≈ 5.76 µM) |  |
| C[C@H](NC(=O)[C@@H](N)CCCCNC(=O)/C=C/c1cn(CC(Cl)(C(=O)c2ccc(Cl)cc2Cl)c2ccccc2)cn1)C(=O)O (stereo partly drawn) [Example 12, N-[N^6-[E-3-[1-[2-Chloro-3-(2,4-dichlorophenyl)-3-oxo-2-phenylpropyl]imidazol-4-yl]propenoyl]-L-lysinyl]-L-alanine] | 0.8 (≈ 1.23 µM) | 0.8 (≈ 1.23 µM) | 3.1 (≈ 4.78 µM) | 1.5 (≈ 2.31 µM) | 3.1 (≈ 4.78 µM) | 3.1 (≈ 4.78 µM) | 6.2 (≈ 9.55 µM) | 6.2 (≈ 9.55 µM) | 1.5 (≈ 2.31 µM) | 1.5 (≈ 2.31 µM) |  |
| Cc1ncc([N+](=O)[O-])n1CCO [Metronidazole, reference compound] | 6.2 (≈ 36.2 µM) | 6.2 (≈ 36.2 µM) | 0.8 (≈ 4.67 µM) | 0.8 (≈ 4.67 µM) | 0.8 (≈ 4.67 µM) | 0.8 (≈ 4.67 µM) |  | 1.5 (≈ 8.76 µM) | 0.8 (≈ 4.67 µM) | 0.8 (≈ 4.67 µM) | MBC (Minimum Bactericidal Concentration) [1, 11]: 10.0 µg/mL (≈ 58.4 µM); MIC (Minimum Inhibitory Concentration) [1, 12]: 10.0 µg/mL (≈ 58.4 µM); MIC [2]: 6.2 µg/mL (≈ 36.2 µM); MIC [3]: 1.5 µg/mL (≈ 8.76 µM); MIC [4]: 0.8 µg/mL (≈ 4.67 µM); MIC [5]: 0.8 µg/mL (≈ 4.67 µM); MBC (B. fragilis NCTC 10581): 1.2 µg/mL (≈ 7.01 µM); MBC (Minimum Bactericidal Concentration) (B. fragilis NCTC 10581; [13]): 0.6 µg/mL (≈ 3.51 µM); MIC (Minimum Inhibitory Concentration) (B. fragilis NCTC 10581; [14]): 0.6 µg/mL (≈ 3.51 µM); MIC [6]: > 100 µg/mL; MIC ([7]; Peptostreptococcus): 0.8 µg/mL (≈ 4.67 µM); MIC [8]: > 100 µg/mL; MBC (B. fragilis NCTC 9344): 1.2 µg/mL (≈ 7.01 µM); MBC (Minimum Bactericidal Concentration) (B. fragilis NCTC 9344; [15]): 0.6 µg/mL (≈ 3.51 µM); MIC (Minimum Inhibitory Concentration) (B. fragilis NCTC 9344; [16]): 0.6 µg/mL and 1.2 µg/mL; MIC [9]: > 100 µg/mL; MBC (B. fragilis WS-1; WS1, 48 h, read-out: MBC (Minimum Bactericidal Concentration), strain E): 1.2 µg/mL (≈ 7.01 µM); MBC (B. fragilis NCTC 9343; NCTC9343, 48 h, read-out: MBC (Minimum Bactericidal Concentration), strain B): 1.2 µg/mL (≈ 7.01 µM); MIC (Minimum Inhibitory Concentration) (B. fragilis NCTC 9343; strain B, 48 hours at 37° C., anaerobic chamber, 10^5 cells/ml): 1.2 µg/mL and 0.6 µg/mL; MIC [10]: 0.8 µg/mL (≈ 4.67 µM) |

Reference: patent US4761483A, “Chloro-substituted ketone imidazole derivatives” (G. D. Searle & Co., priority 1985, dated 1988)
